This note sets out measurements from ChEMBL document CHEMBL1139858, “Design, synthesis, and X-ray structure of potent memapsin 2 (beta-secretase) inhibitors with isophthalamide derivatives as the P2-P3-ligands” (J Med Chem, 2007).

T1 sequence (P56817 whole entry): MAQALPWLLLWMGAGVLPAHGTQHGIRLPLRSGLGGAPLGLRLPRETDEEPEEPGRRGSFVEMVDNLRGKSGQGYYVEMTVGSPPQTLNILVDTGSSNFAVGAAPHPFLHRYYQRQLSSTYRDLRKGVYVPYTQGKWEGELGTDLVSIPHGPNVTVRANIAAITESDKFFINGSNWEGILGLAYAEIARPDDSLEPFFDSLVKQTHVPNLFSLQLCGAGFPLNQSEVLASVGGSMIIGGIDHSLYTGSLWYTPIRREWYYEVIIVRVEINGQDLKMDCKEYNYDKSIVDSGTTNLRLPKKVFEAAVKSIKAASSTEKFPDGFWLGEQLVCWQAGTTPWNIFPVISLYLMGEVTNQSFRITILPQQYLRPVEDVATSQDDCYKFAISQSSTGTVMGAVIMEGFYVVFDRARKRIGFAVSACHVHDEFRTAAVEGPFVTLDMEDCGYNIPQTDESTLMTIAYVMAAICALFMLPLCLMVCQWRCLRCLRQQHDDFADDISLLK

The first assay has as its target T1, Beta-secretase 1 (Homo sapiens, UniProt P56817).
Description: Inhibition of recombinant memapsin 2
For the compound `CCCNC(=O)c1cc(C(=O)N[C@@H](CC(C)C)[C@@H](O)C[C@@H](C)C(=O)N[C@H](C(=O)NC(C)C)C(C)C)cc(N(C)S(C)(=O)=O)c1`, affinity was put at a Ki of 52.5 nM.

In turn, `CCCNC(=O)c1cccc(C(=O)N[C@@H](CC(C)C)[C@@H](O)C[C@@H](C)C(=O)N[C@H](C(=O)NC(C)C)C(C)C)c1` registered a Ki of 788 nM.

`Cc1nc(CNC(=O)c2cc(C(=O)N[C@@H](CC(C)C)[C@@H](O)C[C@@H](C)C(=O)N[C@H](C(=O)NC(C)C)C(C)C)cc(N(C)S(C)(=O)=O)c2)c(C)o1`: affinity was put at a Ki of 1.8 nM.

`CC(C)C[C@H](NC(=O)c1cc(C(=O)N[C@H](CO)c2ccccc2)cc(N(C)S(C)(=O)=O)c1)[C@@H](O)C[C@@H](C)C(=O)N[C@H](C(=O)NC(C)C)C(C)C` showed a Ki of 438 nM.

As for `Cc1nc(C(C)NC(=O)c2cc(C(=O)N[C@@H](CC(C)C)[C@@H](O)C[C@@H](C)C(=O)N[C@H](C(=O)NC(C)C)C(C)C)cc(N(C)S(C)(=O)=O)c2)c(C)o1` (some centres not stated), the Ki turned out to be 27 nM.

A further assay deals with Cathepsin D (Homo sapiens, UniProt P07339).
Cathepsin D, sequence (P07339 65-162 limits assumed): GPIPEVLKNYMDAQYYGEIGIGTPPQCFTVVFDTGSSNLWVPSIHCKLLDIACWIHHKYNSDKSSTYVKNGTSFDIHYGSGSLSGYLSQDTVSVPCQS
Cathepsin D, sequence (P07339 169-412 limits assumed): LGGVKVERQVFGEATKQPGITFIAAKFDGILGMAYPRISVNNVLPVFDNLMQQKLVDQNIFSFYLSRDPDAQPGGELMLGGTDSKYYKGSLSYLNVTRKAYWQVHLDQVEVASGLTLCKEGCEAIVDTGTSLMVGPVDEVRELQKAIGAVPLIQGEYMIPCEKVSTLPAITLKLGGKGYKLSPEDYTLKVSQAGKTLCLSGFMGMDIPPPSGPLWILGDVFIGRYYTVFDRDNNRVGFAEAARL
Description: Inhibition of human cathepsin D
Compound `CCCNC(=O)c1cc(C(=O)N[C@@H](CC(C)C)[C@@H](O)C[C@@H](C)C(=O)N[C@H](C(=O)NC(C)C)C(C)C)cc(N(C)S(C)(=O)=O)c1` displayed a Ki of 483 nM.

The compound `Cc1nc(CNC(=O)c2cc(C(=O)N[C@@H](CC(C)C)[C@@H](O)C[C@@H](C)C(=O)N[C@H](C(=O)NC(C)C)C(C)C)cc(N(C)S(C)(=O)=O)c2)c(C)o1` gave a Ki of 245 nM.

Take `Cc1nc(C(C)NC(=O)c2cc(C(=O)N[C@@H](CC(C)C)[C@@H](O)C[C@@H](C)C(=O)N[C@H](C(=O)NC(C)C)C(C)C)cc(N(C)S(C)(=O)=O)c2)c(C)o1` (some centres not stated): the Ki worked out at 490 nM.

Another assay addresses T1, Beta-secretase 1. The source holds these as a separate data set.
Description: Inhibition of memapsin 2 expressed in CHO cells
Regarding `CCCNC(=O)c1cc(C(=O)N[C@@H](CC(C)C)[C@@H](O)C[C@@H](C)C(=O)N[C@H](C(=O)NC(C)C)C(C)C)cc(N(C)S(C)(=O)=O)c1`, the IC50 was 3600 nM.

Consider `Cc1nc(CNC(=O)c2cc(C(=O)N[C@@H](CC(C)C)[C@@H](O)C[C@@H](C)C(=O)N[C@H](C(=O)NC(C)C)C(C)C)cc(N(C)S(C)(=O)=O)c2)c(C)o1`, for which the IC50 stood at 1800 nM.

In turn, `CC(C)C[C@H](NC(=O)c1cc(C(=O)N[C@H](CO)c2ccccc2)cc(N(C)S(C)(=O)=O)c1)[C@@H](O)C[C@@H](C)C(=O)N[C@H](C(=O)NC(C)C)C(C)C` had an IC50 of 190000 nM.

The compound `Cc1nc(C(C)NC(=O)c2cc(C(=O)N[C@@H](CC(C)C)[C@@H](O)C[C@@H](C)C(=O)N[C@H](C(=O)NC(C)C)C(C)C)cc(N(C)S(C)(=O)=O)c2)c(C)o1` (some centres not stated) returned an IC50 of 10300 nM.

By Ki is commonly meant a measure of affinity in units of concentration, obtained from inhibition or displacement. Low readings indicate tighter binding, high ones weaker binding. As a reminder, the IC50 is the concentration at which inhibition is half-maximal. Low values mean greater potency, high ones weaker potency.
